Measured values reported in ChEMBL document CHEMBL5724914, “Linking interpersonal differences in gut microbiota composition and drug biotransformation activity” (2024).

Tests used:
[1] = human gut metagenome, 24 h, 2 µM
[2] = human gut metagenome, 24 h, 2 µM; remark: listed apart in the source
[3] = (§1) The drug is tested on Z-025 corresponding to rabbit gut metagenome with ENA study accession number: PRJEB37062 and ENA sample accession number: ERS12561824 for biotransformation under anaerobic condition. The drug concentrations were measured over 9 timepoints collected between 0 and 24 hours of incubation by liquid-chromatography-coupled mass spectrometry (LC–MS); settings: 2 µM
[4] = as §1, with “Z-028” for “Z-025”, “mouse” for “rabbit”, “ERS12561827” for “ERS12561824”; settings: 2 µM
[5] = as §1, with “Z-016” for “Z-025”, “mouse” for “rabbit”, “ERS12561815” for “ERS12561824”; settings: 2 µM
[6] = human gut metagenome, 24 h, 2 µM; remark: listed apart in the source
[7] = human gut metagenome, 24 h, 2 µM; remark: listed apart in the source
[8] = as §1, with “Z-010” for “Z-025”, “to” for “to rabbit gut”, “ERS12561810” for “ERS12561824”; settings: 2 µM
[9] = human gut metagenome, 24 h, 2 µM; remark: listed apart in the source
[10] = as §1, with “Z-026” for “Z-025”, “to” for “to rabbit gut”, “ERS12561825” for “ERS12561824”; settings: 2 µM
[11] = as §1, with “Z-005” for “Z-025”, “to” for “to rabbit gut”, “ERS12561805” for “ERS12561824”; settings: 2 µM
[12] = human gut metagenome, 24 h, 2 µM; remark: listed apart in the source
[13] = human gut metagenome, 24 h, 2 µM; remark: listed apart in the source
[14] = as §1, with “Z-024” for “Z-025”, “pig” for “rabbit”, “ERS12561823” for “ERS12561824”; settings: 2 µM
[15] = as §1, with “Z-017” for “Z-025”, “mouse” for “rabbit”, “ERS12561816” for “ERS12561824”; settings: 2 µM
[16] = as §1, with “WLS-086” for “Z-025”, “human” for “rabbit”, “ERS12561752” for “ERS12561824”; settings: 2 µM
[17] = human gut metagenome, 24 h, 2 µM; remark: listed apart in the source
[18] = as §1, with “Z-011” for “Z-025”, “mouse” for “rabbit”, “ERS12561811” for “ERS12561824”; settings: 2 µM
[19] = human gut metagenome, 24 h, 2 µM; remark: listed apart in the source
[20] = as §1, with “Z-012” for “Z-025”, “to” for “to rabbit gut”, “ERS12561812” for “ERS12561824”; settings: 2 µM
Also: call rule not given here.

SMILES	Bacterial Biotransformation [1]	Bacterial Biotransformation [2]	Bacterial Biotransformation [3]	Bacterial Biotransformation [4]	Bacterial Biotransformation [5]	Bacterial Biotransformation [6]	Bacterial Biotransformation [7]	Bacterial Biotransformation [8]	Bacterial Biotransformation [9]	Bacterial Biotransformation [10]	Bacterial Biotransformation [11]	Bacterial Biotransformation [12]	Bacterial Biotransformation [13]	Bacterial Biotransformation [14]	Bacterial Biotransformation [15]	Bacterial Biotransformation [16]	Bacterial Biotransformation [17]	Bacterial Biotransformation [18]	Bacterial Biotransformation [19]	Bacterial Biotransformation [20]
C[C@]12CCC(=O)C=C1[C@@H]1C[C@@H]1[C@H]1[C@@H]3[C@@H]4C[C@@H]4[C@@]4(CCC(=O)O4)[C@@]3(C)CC[C@@H]12 [DROSPIRENONE]	Compound metabolized	Compound NOT metabolized	Compound NOT metabolized	Compound NOT metabolized	Compound metabolized	Compound metabolized	Compound metabolized	Compound metabolized	Compound NOT metabolized	Compound NOT metabolized	Compound metabolized	Compound metabolized	Compound metabolized	Compound NOT metabolized	Compound metabolized	Compound metabolized	Compound metabolized	Compound NOT metabolized	Compound metabolized	Compound NOT metabolized
CC(C)c1nc(N(C)S(C)(=O)=O)nc(-c2ccc(F)cc2)c1/C=C/[C@@H](O)C[C@@H](O)CC(=O)[O-].CC(C)c1nc(N(C)S(C)(=O)=O)nc(-c2ccc(F)cc2)c1/C=C/[C@@H](O)C[C@@H](O)CC(=O)[O-].[Ca+2] [ROSUVASTATIN CALCIUM]	Compound NOT metabolized	Compound NOT metabolized	Compound NOT metabolized	Compound NOT metabolized	Compound NOT metabolized	Compound metabolized	Compound NOT metabolized	Compound NOT metabolized	Compound metabolized	Compound NOT metabolized	Compound NOT metabolized	Compound NOT metabolized	Compound metabolized	Compound NOT metabolized	Compound NOT metabolized	Compound metabolized	Compound metabolized	Compound NOT metabolized	Compound NOT metabolized	Compound NOT metabolized
CC(C)NCC(O)COc1ccc(CC(N)=O)cc1 (stereo not given) [ATENOLOL]	Compound NOT metabolized	Compound NOT metabolized	Compound NOT metabolized	Compound NOT metabolized	Compound NOT metabolized	Compound metabolized	Compound NOT metabolized	Compound NOT metabolized	Compound NOT metabolized	Compound NOT metabolized	Compound NOT metabolized	Compound NOT metabolized	Compound NOT metabolized	Compound NOT metabolized	Compound NOT metabolized	Compound metabolized	Compound metabolized	Compound NOT metabolized	Compound NOT metabolized	Compound NOT metabolized
COc1ccc2cc([C@H](C)C(=O)O)ccc2c1 [NAPROXEN]	Compound NOT metabolized	Compound NOT metabolized	Compound NOT metabolized	Compound NOT metabolized	Compound NOT metabolized	Compound metabolized	Compound NOT metabolized	Compound NOT metabolized	Compound metabolized	Compound NOT metabolized	Compound NOT metabolized	Compound metabolized	Compound metabolized	Compound NOT metabolized	Compound NOT metabolized	Compound metabolized	Compound metabolized	Compound NOT metabolized	Compound metabolized	Compound NOT metabolized
CCOC(=O)[C@H](CCc1ccccc1)N[C@@H](C)C(=O)N1Cc2ccccc2C[C@H]1C(=O)O	Compound metabolized	Compound metabolized	Compound NOT metabolized	Compound NOT metabolized	Compound NOT metabolized	Compound metabolized	Compound metabolized	Compound NOT metabolized	Compound NOT metabolized	Compound NOT metabolized	Compound NOT metabolized	Compound metabolized	Compound metabolized	Compound NOT metabolized	Compound NOT metabolized	Compound metabolized	Compound metabolized	Compound NOT metabolized	Compound metabolized	Compound NOT metabolized
C#C[C@]1(OC(C)=O)CC[C@H]2[C@@H]3CCC4=C/C(=N/O)CC[C@@H]4[C@H]3CC[C@@]21CC [NORGESTIMATE]	Compound NOT metabolized	Compound NOT metabolized	Compound NOT metabolized	Compound NOT metabolized	Compound NOT metabolized	Compound metabolized	Compound metabolized	Compound NOT metabolized	Compound metabolized	Compound NOT metabolized	Compound NOT metabolized	Compound metabolized	Compound NOT metabolized	Compound NOT metabolized	Compound NOT metabolized	Compound metabolized	Compound metabolized	Compound NOT metabolized	Compound metabolized	Compound NOT metabolized
CN1CCC(OC(c2ccccc2)c2ccccc2)CC1	Compound NOT metabolized	Compound metabolized	Compound metabolized	Compound NOT metabolized	Compound NOT metabolized	Compound NOT metabolized	Compound NOT metabolized	Compound NOT metabolized	Compound metabolized	Compound NOT metabolized	Compound NOT metabolized	Compound metabolized	Compound metabolized	Compound metabolized	Compound NOT metabolized	Compound metabolized	Compound metabolized	Compound NOT metabolized	Compound metabolized	Compound NOT metabolized
CCS(=O)(=O)CCn1c([N+](=O)[O-])cnc1C [TINIDAZOLE]	Compound metabolized	Compound metabolized	Compound metabolized	Compound metabolized	Compound metabolized	Compound metabolized	Compound NOT metabolized	Compound metabolized	Compound metabolized	Compound metabolized	Compound metabolized	Compound metabolized	Compound metabolized	Compound metabolized	Compound metabolized	Compound metabolized	Compound metabolized	Compound metabolized	Compound metabolized	Compound metabolized
